From US12201640B2, “19-nor C3,3-disubstituted C21-n-pyrazolyl steroids and methods of use thereof” (Sage Therapeutics, Inc., priority 2013, dated 2025) come the findings set out here.

For one assay, the system named is PTZ-treated mice. In words: Acute PTZ (pentylenetetrazol-induced seizure) assay in mice. In kind it is in vivo, mouse. The conditions noted are these: latency to tonic seizures. As to the method: The anticonvulsant effect of test compounds were assessed in the pentylenetetazol-induced seizure assay in mice similar to methods described in Giardina & Gasior (2009) Curr Protoc Pharmacol., Chapter 5. Male CD-1 mice were housed in groups of five under controlled conditions (temperature of 22±2° C. and 12:12 light-dark cycle, lights on at 8:00 am) and water and food were available ad libitum. The mice were housed for 1 week prior to behavioral testing, at which time they weighed 25-35 g. Pentylenetetrazol (PTZ, Sigma) was dissolved in sterile 0.9% saline at a concentration of 12 mg/mL concentration for subcutaneous administration. Test compounds were formulated and administered via oral gavage or intraperitoneal injection at a predetermined time-point (typically 30 or 60 minutes) prior to PTZ injection. All solutions were made fresh and were given in a volume of 10 ml/kg body weight.
Mice were acclimated to the test room for at least 30 min before compound administration. Mice were randomized into at least four test groups (vehicle and at least three doses of the test compound) with 10 mice per group. […] Following the drug pretreatment time the mice were injected s.c. with PTZ (120 mg/kg). Immediately following the PTZ injection, mice were individually placed into observation chambers (25×15×15 cm) and a three-channel timer was started. Each mouse was continuously observed for 30 min and the following behaviors were recorded by observers blinded to the treatments: 1) latency to clonic convulsions that persist for 3 sec and followed by an absence of righting reflex 2) latency to tonic convulsions, characterized by the rigid extension of all four limbs that exceeded a 90 degree angle with the body 3) latency to death 4) number of clonic and tonic convulsions. Data are presented as mean±S.E.M and one-way analysis of variance with Dunnett's or Bonferroni's post-hoc test was used to detect significant differences in latency and number between the vehicle and dose group. p values<0.05 were regarded as statistically significant.

The next assay relates to male Sprague Dawley rats. In words: Loss of righting reflex in rats. It is filed as in vivo. The conditions noted are these: Rat IV, 5 mpk. The protocol:
Loss of Righting Reflex in Rats
The plasma pharmacokinetics and a qualitative assessment of sedation were obtained in male
Sprague Dawley rats according to the following procedure. Rats were dosed by intravenous bolus dose (60 seconds) via the foot dorsal vein at doses ranging from 5 to 15 mg/kg in an appropriate vehicle. In order to assess sedation, rats were gently restrained by hand to a lateral position for dose administration. […] If the animal was unable to return to an upright position, the time was recorded as the onset of loss of righting reflex (LRR). […] Sluggish or incomplete righting twice consecutively within a 30 second interval qualifies as a loss of righting reflex. After onset of LRR, animals were assessed every 5 minutes in the same manner. Recovery of righting reflex is defined as the ability of a rat to right itself completely within 20 seconds of being placed in dorsal recumbency. The duration of LRR is defined as the time interval between LRR and the return of righting reflex.

In the case of `C[C@@]1(O)CC[C@H]2[C@H](CC[C@@H]3[C@@H]2CC[C@]2(C)[C@@H](C(=O)Cn4cccn4)CC[C@@H]32)C1` [SA-13], the “Anticonvulsive Effect Dose (minimal effective anticonvulsant dose)” value in the assay on PTZ-treated mice (IP) is “B (IP) (≥3 mpk)”. In the case of `C[C@@]1(O)CC[C@H]2[C@H](CC[C@@H]3[C@@H]2CC[C@]2(C)[C@@H](C(=O)Cn4cc(C#N)cn4)CC[C@@H]32)C1` [SA-4], in the assay with male Sprague Dawley rats, the “Duration of Rat LRR” value is listed as “C (>60 min)”. Besides, the “Anticonvulsive Effect Dose (minimal effective anticonvulsant dose)” value with PTZ-treated mice (PO) is recorded as “A (PO) (<3 mpk)”.

`Cc1cnn(CC(=O)[C@H]2CC[C@H]3[C@@H]4CC[C@@H]5C[C@](C)(O)CC[C@@H]5[C@H]4CC[C@]23C)c1` [SA-6]: the “Duration of Rat LRR” value with male Sprague Dawley rats is “A (<15 min)”.
